Experimental data: article PMC5908784, “Extracellular loops 2 and 3 of the calcitonin receptor selectively modify agonist binding and efficacy” (Biochemical Pharmacology, 2018)
Positions count from the first letter of the chain named. Read-outs that look alike come from different tables or passages of the source. Where a SMILES comes first, the peptide text is derived from it. Bridges are numbered along the chain shown (N, C = ends).

Columns and labels:
Experiment in all cases: IP1 accumulation
Assay type in all cases: cell-based
[1] = target: T1, hCTR Y284A (Homo sapiens, UniProt P30988, Y284A); conditions: mean ± S.E.M.; for Emax: IP1 maximal response, SEM
T1 construct: expressed in transfected cells
T1 sequence (P30988 25-474 Y284A): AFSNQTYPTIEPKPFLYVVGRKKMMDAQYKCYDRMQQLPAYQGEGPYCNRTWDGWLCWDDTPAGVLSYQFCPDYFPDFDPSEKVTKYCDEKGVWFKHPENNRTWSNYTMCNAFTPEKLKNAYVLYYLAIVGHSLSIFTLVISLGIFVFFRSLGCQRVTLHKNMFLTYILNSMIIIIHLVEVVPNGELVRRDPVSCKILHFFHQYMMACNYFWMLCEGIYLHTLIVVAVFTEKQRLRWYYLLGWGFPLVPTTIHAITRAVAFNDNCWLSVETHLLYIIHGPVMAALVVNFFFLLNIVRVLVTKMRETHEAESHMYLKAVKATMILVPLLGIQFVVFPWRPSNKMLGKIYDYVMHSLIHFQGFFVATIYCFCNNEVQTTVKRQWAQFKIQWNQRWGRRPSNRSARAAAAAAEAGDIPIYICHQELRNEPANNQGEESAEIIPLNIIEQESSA
Description: (§1) Cells (2.5 × 10^4 cells/well) were plated into 96 well trays and cultured overnight. Cells were stimulated with increasing concentration of ligands for 60 min in the presence of LiCl. Samples were lysed and endogenous IP1 was measured using an IP-One HTRF® assay kit (CisBio) as specified by the manufacturer. Data were normalized to the maximal response elicited by 100 μM of ATP.
(§2) Data were corrected for radioligand occupancy using the Cheng-Prusoff equation in Prism; as such data are reported as pKi. Emax and EC50 were estimated from concentration-response curves using with a 3-parameter logistic equation in Prism (v7). These values are a composite of functional affinity, efficacy and stimulus response coupling. […] Significance was accepted at P < 0.05.

[2] = target: T2, hCTR L291A (Homo sapiens, UniProt P30988, L291A); conditions: mean ± S.E.M.; for Emax: IP1 maximal response, SEM
T2 construct: expressed in transfected cells
T2 sequence (P30988 25-474 L291A): T1 sequence (P30988 25-474 Y284A) with A260Y, L267A
Description: as §1, §2

[3] = target: T3, hCTR L298A (Homo sapiens, UniProt P30988, L298A); conditions: for Emax: SEM, read-out: Emax (% WT)
T3 construct: c-Myc (N); expressed in transfected cells
T3 sequence (P30988 25-474 L298A): T1 sequence (P30988 25-474 Y284A) with A260Y, L274A
Description: as §1, §2

[4] = target: T4, hCTR S292A (Homo sapiens, UniProt P30988, S292A); conditions: mean ± S.E.M.; for Emax: IP1 maximal response, SEM
T4 construct: expressed in transfected cells
T4 sequence (P30988 25-474 S292A): T1 sequence (P30988 25-474 Y284A) with A260Y, S268A
Description: as §1, §2

[5] = target: T5, hCTR Y374A (Homo sapiens, UniProt P30988, Y374A); conditions: mean ± S.E.M.; for Emax: IP1 maximal response, SEM
T5 construct: c-Myc (N); expressed in transfected cells
T5 sequence (P30988 25-474 Y374A): T1 sequence (P30988 25-474 Y284A) with A260Y, Y350A
Description: as §1, §2

[6] = IP1, CV1-FlpIn cells, 60 min, LiCl

Row | EC50 [1, 6] [nM] | EC50 [2, 6] [nM] | EC50 ([3]; L298A, IP1, CV1-FlpIn cells, 60 min, LiCl, mean ± S.E.M.) [nM] | Emax ([3]; L298A, IP1 maximal response, mean ± S.E.M.) [%] | EC50 [4, 6] [nM] | EC50 [5, 6] [nM] | Structure (SMILES) | Emax [1] [%] | Emax [2] [%] | Emax [4] [%] | Emax [5] [%] | Emax [3] [%]
1 | 1.15 | 1.62 | 4.07 | 91 ± 10 | 4.27 | 12.3 | CSCC[C@H](NC(=O)CNC(=O)[C@H](CO)NC(=O)[C@H](Cc1ccccc1)NC(=O)[C@H](CCCNC(=N)N)NC(=O)[C@H](Cc1c[nH]cn1)NC(=O)[C@H](Cc1ccccc1)NC(=O)[C@H](CC(N)=O)NC(=O)[C@H](CC(N)=O)NC(=O)[C@H](CC(C)C)NC(=O)[C@H](CC(N)=O)NC(=O)[C@H](CCCNC(=N)N)NC(=O)[C@H](Cc1c[nH]c2ccccc12)NC(=O)[C@H](Cc1ccc(O)cc1)NC(=O)[C@H](C)NC(=O)[C@H](CO)NC(=O)[C@H](CC(C)C)NC(=O)[C@@H](NC(=O)[C@@H]1CSSC[C@H](N)C(=O)N[C@@H](CO)C(=O)N[C@@H](CC(N)=O)C(=O)N[C@@H](CC(C)C)C(=O)N[C@@H](CO)C(=O)N[C@@H]([C@@H](C)O)C(=O)N1)C(C)C)C(=O)NCC(=O)N[C@@H](Cc1ccccc1)C(=O)NCC(=O)N1CCC[C@H]1C(=O)N[C@@H](CCC(=O)O)C(=O)N[C@H](C(=O)N1CCC[C@H]1C(N)=O)[C@@H](C)O [pCT] (H-CSNLSTCVLSAYWRNLNNFHRFSGMGFGPETP-NH2; disulfide 1-7) | 94 ± 6 | 67 ± 6 | 92 ± 7 | 106 ± 6 | 
2 |  |  |  |  |  |  | CC(C)C[C@H](NC(=O)[C@H](CCCCN)NC(=O)CNC(=O)[C@H](CC(C)C)NC(=O)[C@@H](NC(=O)[C@@H]1CSSC[C@H](N)C(=O)N[C@@H](CO)C(=O)N[C@@H](CC(N)=O)C(=O)N[C@@H](CC(C)C)C(=O)N[C@@H](CO)C(=O)N[C@@H]([C@@H](C)O)C(=O)N1)C(C)C)C(=O)N[C@@H](CO)C(=O)N[C@@H](CCC(N)=O)C(=O)N[C@@H](CCC(=O)O)C(=O)N[C@@H](CC(C)C)C(=O)N[C@@H](Cc1c[nH]cn1)C(=O)N[C@@H](CCCCN)C(=O)N[C@@H](CC(C)C)C(=O)N[C@@H](CCC(N)=O)C(=O)N[C@H](C(=O)N[C@@H](Cc1ccc(O)cc1)C(=O)N1CCC[C@H]1C(=O)N[C@@H](CCCNC(=N)N)C(=O)N[C@H](C(=O)N[C@@H](CC(N)=O)C(=O)N[C@H](C(=O)NCC(=O)N[C@@H](CO)C(=O)NCC(=O)N[C@H](C(=O)N1CCC[C@H]1C(N)=O)[C@@H](C)O)[C@@H](C)O)[C@@H](C)O)[C@@H](C)O [sCT] | 118 ± 7 | 85 ± 4 | 91 ± 6 | 102 ± 6 | 66 ± 5
3 |  |  |  |  |  |  | CC[C@H](C)[C@H](NC(=O)[C@H](C)NC(=O)[C@@H](NC(=O)[C@H](CCC(N)=O)NC(=O)[C@@H]1CCCN1C(=O)[C@H](Cc1ccccc1)NC(=O)[C@@H](NC(=O)[C@H](Cc1c[nH]cn1)NC(=O)[C@H](Cc1ccccc1)NC(=O)[C@H](CCCCN)NC(=O)[C@H](CC(N)=O)NC(=O)[C@H](Cc1ccccc1)NC(=O)[C@H](CC(=O)O)NC(=O)[C@H](CCC(N)=O)NC(=O)[C@@H](NC(=O)[C@H](Cc1ccc(O)cc1)NC(=O)[C@@H](NC(=O)CNC(=O)[C@H](CC(C)C)NC(=O)[C@H](CCSC)NC(=O)[C@@H]1CSSC[C@H](N)C(=O)NCC(=O)N[C@@H](CC(N)=O)C(=O)N[C@@H](CC(C)C)C(=O)N[C@@H](CO)C(=O)N[C@@H]([C@@H](C)O)C(=O)N1)[C@@H](C)O)[C@@H](C)O)[C@@H](C)O)[C@@H](C)O)C(=O)NCC(=O)N[C@H](C(=O)NCC(=O)N[C@@H](C)C(=O)N1CCC[C@H]1C(N)=O)C(C)C [hCT] | 81 ± 12 | 71 ± 16 | 70 ± 6 | 110 ± 9 | 58 ± 6
